Assay results: the NIST ThermoML archive (doi:10.1016/j.jct.2017.02.014)

Key:
[1] = heat capacity at constant pressure per volume; xn = mol fraction of the nth substance listed; conditions: 102.6 kPa, Liquid, DSC, x1 = 0.118
[2] = refractive index (other wavelength) (dimensionless); xn = mol fraction of the nth substance listed; conditions: 100 kPa, Liquid, Wavelength=632.8 nm, minimum deviation angle method

CCCC[n+]1ccccc1.F[B-](F)(F)F [1-butylpyridinium tetrafluoroborate] + CCO
[1]
Conditions	heat capacity [J/K/m3]
291.64 K	2400000
291.84 K	2413000
292.04 K	2409000
292.24 K	2412000
292.44 K	2447000
292.64 K	2446000
292.84 K	2430000
293.04 K	2446000
293.24 K	2456000
293.44 K	2452000
293.64 K	2454000
293.84 K	2466000
294.04 K	2479000
294.24 K	2512000
294.44 K	2465000
294.64 K	2512000
294.84 K	2537000
295.04 K	2539000
295.24 K	2557000
295.44 K	2564000
295.64 K	2619000
295.84 K	2578000
296.04 K	2655000
296.24 K	2606000
296.44 K	2659000
296.64 K	2847000
296.86 K	2825000
297.04 K	2338000
297.24 K	2271000
297.44 K	2220000
297.64 K	2228000
297.84 K	2203000
298.04 K	2201000
298.24 K	2198000
298.44 K	2180000
298.64 K	2187000
298.84 K	2145000
299.04 K	2169000
299.24 K	2164000
299.44 K	2169000
299.64 K	2152000
299.84 K	2153000
300.04 K	2150000
300.24 K	2151000
300.44 K	2144000
300.64 K	2130000
300.84 K	2137000
301.24 K	2132000
301.44 K	2139000
301.64 K	2140000
301.84 K	2124000
302.04 K	2130000
302.24 K	2117000
302.44 K	2124000
302.64 K	2130000
302.84 K	2122000
303.04 K	2129000
303.24 K	2131000
303.44 K	2121000
303.63 K	2121000
303.83 K	2127000
304.04 K	2126000
304.24 K	2122000
304.44 K	2130000
304.63 K	2120000
304.83 K	2123000
305.04 K	2117000
305.24 K	2113000
305.44 K	2107000
305.63 K	2112000
306.08 K	2110000
306.51 K	2108000
306.95 K	2108000
307.39 K	2107000
307.83 K	2106000
308.26 K	2106000
308.7 K	2105000
309.14 K	2104000
309.58 K	2104000
310.02 K	2104000
310.45 K	2104000
310.89 K	2105000
311.33 K	2103000
311.77 K	2102000
312.2 K	2102000
312.64 K	2102000
313.08 K	2103000
313.52 K	2101000
313.96 K	2103000
314.39 K	2101000
314.83 K	2103000
315.27 K	2102000
315.71 K	2103000
316.14 K	2102000
316.58 K	2103000
317.02 K	2103000
317.46 K	2103000
317.89 K	2105000
318.33 K	2104000
318.77 K	2106000
319.21 K	2105000
319.65 K	2107000
320.08 K	2107000
320.52 K	2108000
320.96 K	2109000
321.4 K	2109000
321.84 K	2109000
322.27 K	2110000
322.71 K	2111000
323.15 K	2110000

[2]
Conditions	refractive index
281.73 K, x1 = 1	1.4481
282.78 K, x1 = 1	1.4478
284.05 K, x1 = 0.518	1.4307
284.14 K, x1 = 1	1.4475
284.68 K, x1 = 0.394	1.4224
285.33 K, x1 = 0.518	1.4304
285.74 K, x1 = 1	1.4471
286.42 K, x1 = 0.394	1.4219
286.94 K, x1 = 1	1.4468
287.46 K, x1 = 0.02	1.3684
287.51 K, x1 = 0.518	1.4298
287.68 K, x1 = 0.394	1.4215
288.24 K, x1 = 1	1.4464
288.69 K, x1 = 0.518	1.4295
288.71 K, x1 = 0.02	1.3679
289.37 K, x1 = 0.394	1.4211
289.38 K, x1 = 1	1.4461
289.82 K, x1 = 0.02	1.3675
290.14 K, x1 = 0.518	1.429
290.31 K, x1 = 0.394	1.4207
290.37 K, x1 = 1	1.4458
290.46 K, x1 = 0.313	1.414
291.26 K, x1 = 0.02	1.3669
291.42 K, x1 = 0.394	1.4204
291.42 K, x1 = 0.518	1.4287
292.08 K, x1 = 0.313	1.4134
292.15 K, x1 = 1	1.4454
292.64 K, x1 = 0.02	1.3663
293.1 K, x1 = 0.313	1.4131
293.41 K, x1 = 1	1.4451
294.23 K, x1 = 0.313	1.4128
294.38 K, x1 = 0.02	1.3657
295 K, x1 = 1	1.4446
295.32 K, x1 = 0.313	1.4124
296.19 K, x1 = 0.258	1.4062
296.35 K, x1 = 0.199	1.3993
296.35 K, x1 = 0.313	1.4121
296.89 K, x1 = 1	1.444
296.98 K, x1 = 0.06	1.3745
296.98 K, x1 = 0.142	1.3902
297.25 K, x1 = 0.095	1.3817
297.52 K, x1 = 0.258	1.4056
298.06 K, x1 = 0.142	1.3899
298.21 K, x1 = 0.06	1.374
298.51 K, x1 = 0.199	1.3986
298.56 K, x1 = 0.095	1.3813
298.9 K, x1 = 0.258	1.4052
299.34 K, x1 = 0.142	1.3895
299.43 K, x1 = 0.06	1.3736
299.58 K, x1 = 0.199	1.3982
299.67 K, x1 = 0.095	1.3809
299.98 K, x1 = 0.258	1.4048
300.34 K, x1 = 0.142	1.3892
300.79 K, x1 = 0.095	1.3805
300.89 K, x1 = 0.06	1.3731
300.95 K, x1 = 0.258	1.4046
301.1 K, x1 = 0.199	1.3977
301.77 K, x1 = 0.095	1.3802
301.77 K, x1 = 0.142	1.3886
301.92 K, x1 = 0.258	1.4043
302.08 K, x1 = 0.06	1.3726
302.16 K, x1 = 0.199	1.3974
302.93 K, x1 = 0.095	1.3798
302.94 K, x1 = 0.142	1.3883
303.3 K, x1 = 0.199	1.397
303.31 K, x1 = 0.06	1.3722
